One series relates to SHP mRNA. In words: In vivo FXR assay: SHP mRNA in mice liver by real-time PCR. The following applies: CDAHFD-fed C57BL/6J mice, single oral dose 100, 30 and 10 mg/kg, liver four hours after administration. As for the experimental part: Test compounds were orally administered to 7-week old male C57BL/6J mice (Nippon Charles River Co., Ltd., Yokohama City, Kanagawa, Japan), that were administered CDAHFD (#A06071302, Research Diets, 20 Jules Lane, New Brunswick, NJ, USA) consisting 60 kcal% fat and 0.1% methionine by weight for 7 days. After four hours of administration, the liver was removed, and total RNA was extracted using a Pure Link RNA Mini Kit (Invitrogen, Thermo Fisher Scientific K. K., Minato-ku, Tokyo, Japan). The concentration of total RNA was measured using Micro Sample Spectrophotometer (SimpliNano, GE Healthcare UK Ltd, Amersham Place Little Chalfont Buckinghamshire, HP7 9NA UK), and cDNA was synthesized using ReverTra Ace qPCR RT Master Mix (Toyobo Co., Ltd., Osaka City, Osaka, Japan). Real-time PCR was performed using a CFX96 Touch Real-Time PCR Analysis System (CFX Manager, Bio-Rad, 1000 Alfred Nobel Drive, Hercules, CA, USA), and the mRNA expression levels of SHP and CYP7A1, the target genes of FXR, were measured using the intercalator method.
S4. In vitro, in vivo assay, and selectvity.
To directly evaluate the in vitro agonist activity towards FXR, test compounds were evaluated in CHO cells transfected with FXR responsive luciferase reporter (Nuclear Receptor & In Vitro Toxicology Solutions, Indigo Biosciences, State College, PA, USA). […]
On the technique in general: Real-time PCR tracks product formation cycle by cycle.

A short description of the next series: Pharmacokinetics in rats. Format: in vivo, Sprague-Dawley rats. The following applies: for Cmax / half-life / CLtot: n=3; for AUC: n=3, AUC0-24h; for Plasma exposure (in words): oral dose of 3 mg/kg; for CLtot: p.o. As for the experimental part:
S3. Supplementary Table S1. Pharmacokinetic properties of 20p and 20q after oral administration […]
Determination of Drug Pharmacokinetics in Sprague-Dawley rats.
Blood samples (about 200 µl) were obtained from the jugular vein at 0.083 (intravenous only), 0.25, 0.5, 1, 2, 4, 8, and 24 hours from 16-hour fasted rats. Plasma was obtained from the blood samples by centrifugation at 3000 rpm for 10 minutes at 4 °C. Plasma were deproteinated and centrifuged at 3000 rpm for 10 minutes at 4 °C. Drug concentrations were measured using LC - MSMS (Triple Quad 4500; […]). Area under the plasma concentration -time curve at 0–24h (AUC0–24h) were calculated using the trapezoidal rule. pharmacokinetic parameters were calculated using the Phoenix WinNonlin 6.4 software (Certara […]

The target of a further series is T1, TGR5 (Homo sapiens, UniProt Q8TDU6).
T1 construct: host or cells: CHO cells
T1 sequence (Q8TDU6 1-330): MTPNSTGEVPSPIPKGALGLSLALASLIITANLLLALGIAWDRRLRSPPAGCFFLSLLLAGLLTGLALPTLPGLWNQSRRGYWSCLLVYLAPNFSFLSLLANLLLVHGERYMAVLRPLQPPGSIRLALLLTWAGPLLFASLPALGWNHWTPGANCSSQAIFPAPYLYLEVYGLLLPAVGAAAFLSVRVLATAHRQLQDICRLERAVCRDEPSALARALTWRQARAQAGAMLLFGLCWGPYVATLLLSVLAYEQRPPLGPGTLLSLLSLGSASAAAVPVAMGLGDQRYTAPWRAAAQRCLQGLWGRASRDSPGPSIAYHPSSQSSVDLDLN
In words: TGR5 cAMP assay in CHO cells transfected with TGR5 (cAMP Hunter eXpress, Discover X). Format: cell-based. The note with it: for TGR5 Efficacy (%) (1 µM) / TGR5 Efficacy (%) (10 µM): % vs INT-767 10 µM as 100%; for EC50: 4 parameter logistic fit. A general note: Cyclic AMP is a second messenger, typically raised through Gs and lowered through Gi signalling.

Setting [1] is: Sprague-Dawley, rat, plasma, po, 3mg/kg.
[2] abbreviates: Sprague-Dawley, rat, plasma, iv, 3mg/kg.

SMILES strings stand for the structures.

As for `COc1cc(Cl)cc(N(CC23CCC(c4ccc(OC)c(C#N)c4)(CC2)CC3)C(=O)c2ccncc2C)c1` [Compound 20p], the “Induction of SHP mRNA in the liver” value with SHP mRNA is given as “dose-dependently induced SHP mRNA in the liver”. In the series “Pharmacokinetics in rats” (setting [1]), the maximum concentration (Cmax) – broadly, the highest concentration seen after dosing – worked out at 50.3 ng/mL; the half-life (usually how long it takes for the measured level to halve) was 1.45 h; the AUC (as a rule, the area under the concentration-time curve, a measure of exposure) amounted to 121 ng·h/mL. In addition, the “Plasma exposure (in words)” value in “Pharmacokinetics in rats” is listed as “rather low plasma exposure”. In “Pharmacokinetics in rats” (3mg/kg), this compound returned a CLtot of 426.93 mL/min/kg. Further, on TGR5, the “TGR5 agonist activity (in words)” value is “strong dual agonist potencies”, the “TGR5 Efficacy (%) (1 µM)” value was 51.1%, the “TGR5 Efficacy (%) (10 µM)” value was 62.4% and a half-maximal response (EC50) required 420 nM.

For `COc1ccc(C23CCC(CN(C(=O)c4ccncc4C)c4cc(Cl)cc(Cl)c4)(CC2)CC3)cc1C#N` [Compound 20q], the “Induction of SHP mRNA in the liver” value in the series on SHP mRNA was “dose-dependently induced SHP mRNA in the liver”. In “Pharmacokinetics in rats” (setting [2]), this compound gave a Cmax of 2580 ng/mL, a half-life of 5.04 h and an exposure (AUC) of 1460 ng·h/mL. In addition, the clearance in the series “Pharmacokinetics in rats” (Sprague-Dawley, rat, plasma, iv, 3mg/kg, n=3, read-out: CLtot (converted)) was 34.2 mL/min/kg. In the series “Pharmacokinetics in rats” (setting [1]), this compound gave a Cmax of 3.2 ng/mL, a half-life of 4.52 h and an AUC of 11 ng·h/mL. Moreover, the “Plasma exposure (in words)” value in the series “Pharmacokinetics in rats” was “rather low plasma exposure”. The compound further yielded a CLtot in “Pharmacokinetics in rats” (3mg/kg) of 2652.33 mL/min/kg. In addition, at TGR5, the “TGR5 agonist activity (in words)” value is given as “strong dual agonist potencies”, the “TGR5 Efficacy (%) (1 µM)” value was determined as 51.2%, the “TGR5 Efficacy (%) (10 µM)” value is reported as 80.2% and the EC50 (commonly the midpoint of the concentration-response curve) was 790 nM.

These data come from paper PMC8080777, “Discovery, optimization, and evaluation of non-bile acid FXR/TGR5 dual agonists” (Scientific Reports, 2021).
